Organism: Rattus norvegicus
Assay: DrugMatrix - Regimen: Daily Repeat
Assay type: toxicity, organism-based, Sprague-Dawley
Parameters: regimen Daily Repeat, gender Male, age 6-8 weeks
Settings: in vivo, po, route oral GAVAGE, vehicle .5 % CMC; for ABSOLUTE BASOPHIL / ABSOLUTE EOSINOPHIL / ABSOLUTE LYMPHOCYTE / ABSOLUTE MONOCYTE / ABSOLUTE SEGMENTED NEUTROPHIL / BASOPHIL / EOSINOPHIL / ERYTHROCYTE COUNT / HEMATOCRIT / HEMOGLOBIN / LEUKOCYTE COUNT / LYMPHOCYTE / MEAN CORPUSCULAR HEMOGLOBIN / MEAN CORPUSCULAR HEMOGLOBIN CONCENTRATION / MEAN CORPUSCULAR VOLUME / MONOCYTE / NEUTROPHIL / NUCLEATED RED BLOOD CELLS / PLATELET COUNT: tissue Blood; for ALANINE AMINOTRANSFERASE / ALBUMIN / ALKALINE PHOSPHATASE / ASPARTATE AMINOTRANSFERASE / BLOOD UREA NITROGEN / CARBON DIOXIDE / CHLORIDE / CHOLESTEROL / CREATINE PHOSPHOKINASE / CREATININE / GLUCOSE / LACTATE DEHYDROGENASE / LIPASE / PHOSPHORUS / POTASSIUM / SODIUM / TOTAL BILIRUBIN / TOTAL PROTEIN / URIC ACID: tissue Plasma
[1] = 0 mg/kg, 72 h, dose level Control, time 3 day
[2] = 0 mg/kg, 120 h, dose level Control, time 5 day
[3] = 385.5 mg/kg, 72 h, dose level Low, time 3 day

How did the “ABSOLUTE BASOPHIL” value [1] turn out when `Cn1c(=O)c2c(ncn2CC(O)CO)n(C)c1=O` (centres undefined) [DYPHYLLINE] was run?
The value was 0 CELLS/uL.

And the “ABSOLUTE EOSINOPHIL” value [1]?
The value was 32.5 CELLS/uL.

And the “ABSOLUTE LYMPHOCYTE” value [1]?
Its value is 13494.17 CELLS/uL.

And the “ABSOLUTE MONOCYTE” value [1]?
Its value is 474 CELLS/uL.

What about the “ABSOLUTE SEGMENTED NEUTROPHIL” value [1] of the same compound?
Its value is 1932.67 CELLS/uL.

And the BASOPHIL [1]?
Its BASOPHIL is 0%.

What about the EOSINOPHIL [1] of the same compound?
The EOSINOPHIL was 0.17%.

What about the “ERYTHROCYTE COUNT” value [1] of the same compound?
The value was 5.45 x10E6/uL.

And the HEMATOCRIT [1]?
The HEMATOCRIT was 34.32%.

And the HEMOGLOBIN [1]?
The HEMOGLOBIN was 13.82 G/DL.

And the “LEUKOCYTE COUNT” value [1]?
Its value is 15.93 x10E3/uL.

What about the LYMPHOCYTE [1] of the same compound?
Its LYMPHOCYTE is 84.83%.

What about the “MEAN CORPUSCULAR HEMOGLOBIN” value [1] of the same compound?
The value was 25.38 pg.

And the “MEAN CORPUSCULAR HEMOGLOBIN CONCENTRATION” value [1]?
The value was 40.27 G/DL.

What about the “MEAN CORPUSCULAR VOLUME” value [1] of the same compound?
Its value is 63.05 fL.

What about the MONOCYTE [1] of the same compound?
The MONOCYTE was 3%.

What about the NEUTROPHIL [1] of the same compound?
Its NEUTROPHIL is 12%.

And the “NUCLEATED RED BLOOD CELLS” value [1]?
The value was 0.67 /100WBC.

What about the “PLATELET COUNT” value [1] of the same compound?
The value was 1188.5 x10E3/uL.

And the “ALANINE AMINOTRANSFERASE” value [1]?
The value was 54.83 u/L.

What about the ALBUMIN [1] of the same compound?
Its ALBUMIN is 4.22 G/DL.

What about the “ALKALINE PHOSPHATASE” value [1] of the same compound?
The value was 427.67 u/L.

What about the “ASPARTATE AMINOTRANSFERASE” value [1] of the same compound?
The value was 86.5 u/L.

What about the “BLOOD UREA NITROGEN” value [1] of the same compound?
Its value is 15.33 mg/dL.

And the “CARBON DIOXIDE” value [1]?
Its value is 24.83 mmol/L.

And the CHLORIDE [1]?
The CHLORIDE was 102.33 MEQ/L.

And the CHOLESTEROL [1]?
The CHOLESTEROL was 71.67 mg/dL.

What about the “CREATINE PHOSPHOKINASE” value [1] of the same compound?
Its value is 442.5 u/L.

What about the CREATININE [1] of the same compound?
The CREATININE was 0.19 mg/dL.

What about the GLUCOSE [1] of the same compound?
Its GLUCOSE is 160.67 mg/dL.

What about the “LACTATE DEHYDROGENASE” value [1] of the same compound?
The value was 236.5 u/L.

What about the LIPASE [1] of the same compound?
The LIPASE was 9 u/L.

And the PHOSPHORUS [1]?
The PHOSPHORUS was 11.97 mg/dL.

And the POTASSIUM [1]?
The POTASSIUM was 6.2 MEQ/L.

And the SODIUM [1]?
Its SODIUM is 142.85 MEQ/L.

And the “TOTAL BILIRUBIN” value [1]?
The value was 0.2 mg/dL.

What about the “TOTAL PROTEIN” value [1] of the same compound?
The value was 5.8 G/DL.

And the “URIC ACID” value [1]?
Its value is 1.3 mg/dL.

And the “ABSOLUTE BASOPHIL” value [2]?
The value was 0 CELLS/uL.

And the “ABSOLUTE EOSINOPHIL” value [2]?
The value was 114.5 CELLS/uL.

And the “ABSOLUTE LYMPHOCYTE” value [2]?
Its value is 14614 CELLS/uL.

And the “ABSOLUTE MONOCYTE” value [2]?
The value was 173 CELLS/uL.

And the “ABSOLUTE SEGMENTED NEUTROPHIL” value [2]?
The value was 1048.5 CELLS/uL.

What about the BASOPHIL [2] of the same compound?
Its BASOPHIL is 0%.

And the EOSINOPHIL [2]?
Its EOSINOPHIL is 0.67%.

And the “ERYTHROCYTE COUNT” value [2]?
The value was 5.66 x10E6/uL.

And the HEMATOCRIT [2]?
Its HEMATOCRIT is 35.52%.

What about the HEMOGLOBIN [2] of the same compound?
The HEMOGLOBIN was 14.27 G/DL.

And the “LEUKOCYTE COUNT” value [2]?
Its value is 15.95 x10E3/uL.

And the LYMPHOCYTE [2]?
Its LYMPHOCYTE is 91.33%.

And the “MEAN CORPUSCULAR HEMOGLOBIN” value [2]?
The value was 25.23 pg.

And the “MEAN CORPUSCULAR HEMOGLOBIN CONCENTRATION” value [2]?
Its value is 40.2 G/DL.

What about the “MEAN CORPUSCULAR VOLUME” value [2] of the same compound?
The value was 62.7 fL.

And the MONOCYTE [2]?
Its MONOCYTE is 1.17%.

What about the NEUTROPHIL [2] of the same compound?
The NEUTROPHIL was 6.83%.

And the “NUCLEATED RED BLOOD CELLS” value [2]?
The value was 0.33 /100WBC.

And the “PLATELET COUNT” value [2]?
Its value is 1229 x10E3/uL.

What about the “ALANINE AMINOTRANSFERASE” value [2] of the same compound?
The value was 58.67 u/L.

And the ALBUMIN [2]?
Its ALBUMIN is 4.32 G/DL.

And the “ALKALINE PHOSPHATASE” value [2]?
Its value is 382.5 u/L.

And the “ASPARTATE AMINOTRANSFERASE” value [2]?
The value was 81.67 u/L.

And the “BLOOD UREA NITROGEN” value [2]?
The value was 17.67 mg/dL.

What about the “CARBON DIOXIDE” value [2] of the same compound?
The value was 27.17 mmol/L.

What about the CHLORIDE [2] of the same compound?
The CHLORIDE was 102.33 MEQ/L.

And the CHOLESTEROL [2]?
Its CHOLESTEROL is 63.67 mg/dL.

What about the “CREATINE PHOSPHOKINASE” value [2] of the same compound?
The value was 227.67 u/L.

What about the CREATININE [2] of the same compound?
Its CREATININE is 0.23 mg/dL.

And the GLUCOSE [2]?
The GLUCOSE was 155.33 mg/dL.

And the “LACTATE DEHYDROGENASE” value [2]?
Its value is 146.5 u/L.

What about the LIPASE [2] of the same compound?
The LIPASE was 10.67 u/L.

What about the PHOSPHORUS [2] of the same compound?
Its PHOSPHORUS is 11.93 mg/dL.

And the POTASSIUM [2]?
Its POTASSIUM is 6.85 MEQ/L.

What about the SODIUM [2] of the same compound?
Its SODIUM is 143.95 MEQ/L.

And the “TOTAL BILIRUBIN” value [2]?
The value was 0.18 mg/dL.

What about the “TOTAL PROTEIN” value [2] of the same compound?
Its value is 6.02 G/DL.

And the “URIC ACID” value [2]?
Its value is 1.63 mg/dL.

And the “ABSOLUTE BASOPHIL” value [3]?
The value was 0 CELLS/uL.

And the “ABSOLUTE EOSINOPHIL” value [3]?
Its value is 40.67 CELLS/uL.

And the “ABSOLUTE LYMPHOCYTE” value [3]?
The value was 10748 CELLS/uL.

And the “ABSOLUTE MONOCYTE” value [3]?
Its value is 461.33 CELLS/uL.

And the “ABSOLUTE SEGMENTED NEUTROPHIL” value [3]?
Its value is 1483.33 CELLS/uL.

What about the BASOPHIL [3] of the same compound?
The BASOPHIL was 0%.

What about the EOSINOPHIL [3] of the same compound?
Its EOSINOPHIL is 0.33%.

What about the “ERYTHROCYTE COUNT” value [3] of the same compound?
Its value is 5.3 x10E6/uL.

What about the HEMATOCRIT [3] of the same compound?
Its HEMATOCRIT is 33.37%.

What about the HEMOGLOBIN [3] of the same compound?
The HEMOGLOBIN was 13.27 G/DL.

And the “LEUKOCYTE COUNT” value [3]?
The value was 12.73 x10E3/uL.

And the LYMPHOCYTE [3]?
Its LYMPHOCYTE is 86%.

And the “MEAN CORPUSCULAR HEMOGLOBIN” value [3]?
The value was 25.13 pg.

And the “MEAN CORPUSCULAR HEMOGLOBIN CONCENTRATION” value [3]?
The value was 39.8 G/DL.

And the “MEAN CORPUSCULAR VOLUME” value [3]?
The value was 63.07 fL.

What about the MONOCYTE [3] of the same compound?
The MONOCYTE was 3%.

And the NEUTROPHIL [3]?
Its NEUTROPHIL is 10.67%.

And the “NUCLEATED RED BLOOD CELLS” value [3]?
Its value is 0.33 /100WBC.

What about the “PLATELET COUNT” value [3] of the same compound?
The value was 1358 x10E3/uL.

And the “ALANINE AMINOTRANSFERASE” value [3]?
Its value is 42.67 u/L.

What about the ALBUMIN [3] of the same compound?
The ALBUMIN was 4.03 G/DL.

And the “ALKALINE PHOSPHATASE” value [3]?
The value was 400.67 u/L.

What about the “ASPARTATE AMINOTRANSFERASE” value [3] of the same compound?
Its value is 72 u/L.

What about the “BLOOD UREA NITROGEN” value [3] of the same compound?
Its value is 15.67 mg/dL.

What about the “CARBON DIOXIDE” value [3] of the same compound?
Its value is 25.33 mmol/L.

What about the CHLORIDE [3] of the same compound?
The CHLORIDE was 103 MEQ/L.

And the CHOLESTEROL [3]?
Its CHOLESTEROL is 72.33 mg/dL.

And the “CREATINE PHOSPHOKINASE” value [3]?
Its value is 199.67 u/L.

What about the CREATININE [3] of the same compound?
The CREATININE was 0.14 mg/dL.

What about the GLUCOSE [3] of the same compound?
The GLUCOSE was 152 mg/dL.

What about the “LACTATE DEHYDROGENASE” value [3] of the same compound?
The value was 149.67 u/L.

And the LIPASE [3]?
The LIPASE was 9.33 u/L.

And the PHOSPHORUS [3]?
The PHOSPHORUS was 13 mg/dL.

What about the POTASSIUM [3] of the same compound?
Its POTASSIUM is 7.04 MEQ/L.

What about the SODIUM [3] of the same compound?
Its SODIUM is 144.5 MEQ/L.

What about the “TOTAL BILIRUBIN” value [3] of the same compound?
Its value is 0.17 mg/dL.

And the “TOTAL PROTEIN” value [3]?
The value was 5.57 G/DL.

And the “URIC ACID” value [3]?
Its value is 1.53 mg/dL.

From ChEMBL document CHEMBL3885881, “DrugMatrix”
